Assay results reported in patent publication US6087401A, “Cyclopentenones, process for preparing the same, and the use thereof” (Takara Shuzo Co., Ltd., priority 1996, dated 2000).
≈ marks a conversion by molar mass, not a printed value. Read-outs that look alike come from different tables or passages of the source.

What was measured:
[1] = test system: Bacillus subtilis (IFO 3034); experiment: growth turbidity, microorganism (17); format: cell-based; details: 8 h, control 267
Excerpt: They were testing microorganism (13): Escherichia coli HB101 (ATCC 33694); testing microorganism (14): Salmonella typhimurium LT-2 (ATCC 27106); testing microorganism (15): Pseudomonas aeruginosa (IFO 3080); testing microorganism (16): Staphylococcus aureus 3A (NCTC 8319); testing microorganism (17): Bacillus subtilis (IFO 3034); and testing microorganism (18): Streptococcus mutans (GS5; stored at National Institute of Health).
The testing microorganisms were subjected to a seed culture overnight in an L-broth (1% tryptone, 0.5% yeast extract and […]; pH 7.0). The seed culture (5 μl) was inoculated to a medium to which 25-200 μg/ml of cyclopentenone was added to 5 ml of L-both and also to a medium to which nothing was added and a shake incubation was conducted at 37° C. to measure the growth. At the initiation of the incubation and also at eight hours thereafter, turbidity of the culture was measured using a Fuji Digital Turbidimeter (sold from Fuji Kogyo KK; manufactured by Akiyama Denki Seisakusho) under the condition that the adjusted scale was 82.3 and the growth of the tested microorganism was measured from the value (growth turbidity) obtained by deducting the turbidity at the initiation of incubation from that after eight hours. Incidentally, in the case of the testing microorganism (18), a brain heart infusion was used instead of L-broth.

mice = details: oral, 100 mg/kg
[2] = test system: Lactobacillus homohiochii (IFO 13120); experiment: antibacterial activity to hiochi bacteria, microorganism C; format: cell-based; details: five days; for Growth Turbidity (OD600): control 1.61
Method: (§1) The testing microorganism was subjected to a stationary incubation for five days in an SI medium (Japan Brewery Association) containing 10% of ethanol to give a seed microorganism. The seed microorganism (0.1%) was added to 100 ml of 10% ethanol-containing SI medium to which the cyclopentenone was added in an amount of 0, 25, 50, 75 or 100 μg/ml (in terms of final concentration), then a stationary incubation was conducted for five days and the turbidity was measured. In measuring the turbidity, the value of OD600 was measured using an absorbance meter. A value of OD600 of the medium to which no testing microorganism was inoculated was deducted from the above value and this (growth turbidity) was used for the growth of the tested microorganism.
(§2) The tested microorganisms were as follows. Thus, Lactobacillus fructivorans (IFO 13118) (testing microorganism A), Lactobacillus fructivorans (JCM 1198) (testing microorganism B) and Lactobacillus homohiochii (IFO 13120) (testing microorganism C) as true hiochi bacteria while Lactobacillus rhamnosus (IFO 3532) (testing microorganism D) was used as hiochi lactobacteria.

HL-60 cells [3] = experiment: apoptosis-inducing activity to HL-60 cells; format: cell-based, human; details: Homo sapiens
Method: (2) The cyclopentenone prepared in Example 2-(1) was used for preparing aqueous solutions of the cyclopentenone in the concentrations of 2.86 mM, 955 μM, 318 μM, 106 μM, 35 μM, 12 μM and […]. Then said heat-treated substance was adjusted to pH 7.0 with NaOH and the apoptosis-inducing activity to HL-60 cells was measured as follows.
To 1.35 ml of this suspension was added 0.15 ml of the above-mentioned cyclopentenone solution and the mixture was incubated at […] for 20 hours in the presence of 5% of carbon dioxide gas.

[4] = test system: Legionella pneumophila (isolated from bathtub water of hot spring); format: cell-based; details: 12 ppm, common logarithm
[5] = test system: Helicobacter pylori strains NCTC 11637 (ATCC 43504), 206 and 3401; experiment: MIC against Helicobacter pylori strains; format: cell-based; details: pH 6.0, 37° C., 3-4 days, all strains tested, read-out: MIC (90% or more inhibition)
Method: (4) As to Helicobacter pylori strains, a standard strain NCTC 11637 (ATCC 43504) and clinically isolated strains from human stomach (206 and 3401; both stored at Department of Bacteriology, Hyogo Medical College) were used. Each strain was subjected to a shake incubation at 37° C. under a slightly aerophilic condition using an Aneropack Campiro (manufactured by Mitsubishi Gas Chemical) in a Brucella Broth Medium (manufactured by BBL) containing 7% of horse serum (manufactured by Bio Whittaker). The microorganism in a logarithmic growth phase was diluted with a Brucella Broth and used for the test. A 24-well plate (manufacturedby Falcon) was used for the experiments. The cyclopentenone was charged at the rate of 0.1 ml (1,000 μg)/well, subjected to a two-step dilution using PBS and immobilized by adding 0.9 ml/well of a medium [a Brucella agar medium (pH 6.0) containing 7% of horse serum (manufactured by BBL)]. The Brucella agar medium was previously adjusted to pH 6.0 with HCl and was used for the experiments. Each microorganism was inoculated at the rate of about 10^4 /50 μl/well. […] The amount of a sample (μg/ml) showing 90% or more inhibition was defined as the MIC.

EAC = experiment: life-prolonging effect, EAC; format: in vivo, female mice of DDY strain; details: intraperitoneal tumor
[6] = test system: Saccharomyces cerevisiae ATCC 9763; experiment: antimicrobial activity to fungi; format: cell-based; details: high concentrations
HL-60 cells [7] = experiment: viable HL-60 cell number after incubation; format: cell-based, human; details: sixth day
[8] = test system: Lactobacillus rhamnosus (IFO 3532); experiment: antibacterial activity to hiochi lactobacteria, microorganism D; format: cell-based; details: five days; for Growth Turbidity (OD600): control 0.35
Method: as §1, §2

Sarcoma-180 = experiment: life-prolonging effect, subcutaneous Sarcoma-180; format: in vivo, female mice of ICR strain; details: about 80 mg/kg/day in drinking water, 40th day; control two out of eight
Method: (2) Sixteen female mice of ICR strain of six weeks age (body weight: about 26 g) were used. Sarcoma-180 (5.5×10^6 cells/mouse) was subcutaneously injected into abdomen whereupon a control group (8 mice) and a group administered with the cyclopentenone (8 mice) were made.
The cyclopentenone was diluted with tap water and freely given to the cyclopentenone-administered group to make the dose of the cyclopentenone about 80 mg/kg/day using a water-supplying bottle. Tap water was similarly given to the control group. In both groups, feed was freely given during the course of the experiment.

Structure (SMILES): O=C1C=CC(O)C1O (centres unmarked) [the cyclopentenone, 4,5-dihydroxy-2-cyclopenten-1-one]
- Growth Turbidity ([1]; 25 μg/ml): 145
- Growth Turbidity ([1]; 50 μg/ml): 9
- Growth Turbidity ([1]; 100 μg/ml): 0
- Growth Turbidity ([1]; 200 μg/ml): 0
- toxicity (mice): not show toxicity
- Growth Turbidity (OD600) ([2]; 25 μg/ml): 0.32
- Growth Turbidity (OD600) ([2]; 50 μg/ml): 0.08
- Growth Turbidity (OD600) ([2]; 75 μg/ml): 0
- MIC ([2]; IFO13120, 120 h, read-out: concentration completely inhibiting growth): 75 µg/mL (≈ 657 µM)
- minimal effective concentration (HL-60 cells [3]; HL-60, 20 h, read-out: final concentration at which viable cell numbers and cell viability decreased): ≥ 10.6 µM
- minimal effective concentration (HL-60 cells [3]; HL-60, 20 hours, 35 μM solution added, read-out: final concentration at which apoptosis was induced (DNA molecular weight became small, cell shape changed)): 3.5 µM
- Numbers of Tested Microorganism Cells after Incubation ([4]; 16 h, 0 ppm 7.4): 6.1 log10 CFU/mL
- Numbers of Tested Microorganism Cells after Incubation ([4]; 96 h, 0 ppm 8.6): 8.6 log10 CFU/mL
- MIC [5]: 32 µg/mL (≈ 280 µM)
- increase in life span (EAC): 255%
- mean survival days (EAC; control 15.8 days): 40.3 days
- antimicrobial activity [6]: antimicrobial activity at high concentrations
- viable cells (HL-60 cells [7]; 10 μg/ml): no viable cell was found
- inhibition at 0.01 µg/mL (HL-60 cells [7]; Homo sapiens, HL-60, 0.01 μg/ml, vs control, read-out: cell growth inhibition): ~40%
- inhibition at 0.1 µg/mL (HL-60 cells [7]; Homo sapiens, HL-60, 0.1 μg/ml, vs control, read-out: cell growth inhibition): ~55%
- inhibition at 1 µg/mL (HL-60 cells [7]; Homo sapiens, HL-60, 1 μg/ml, vs control, read-out: cell growth inhibition): ~90%
- Growth Turbidity (OD600) ([8]; 25 μg/ml): 0.04
- Growth Turbidity (OD600) ([8]; 50 μg/ml): 0.01
- Growth Turbidity (OD600) ([8]; 75 μg/ml): 0
- MIC ([8]; Lacticaseibacillus rhamnosus, IFO3532, 120 h, read-out: concentration completely inhibiting growth): 75 µg/mL (≈ 657 µM)
- numbers of living mice (out of eight) (Sarcoma-180): seven
